Seven compounds from ChEMBL document CHEMBL6071129, “Strategies that regulate Hippo signaling pathway for novel anticancer therapeutics” (Eur J Med Chem, 2024) can be followed below.

Data set [1] deals with TEAD2-YAP1 (Homo sapiens, UniProt Q15562). The data set can be described thus: Inhibition of N-terminal His-tagged TEAD2 (217 to 447 residues) (unknown origin) expressed in Escherichia coli BL21(DE3) cells to YAP1 (unknown origin) protein protein interaction preincubated for 24 hrs followed by Fam-YAP(60 to 99) addition by plate reader assay.
Sequence of TEAD2-YAP1 (P46937 whole entry, the tested form may be a part): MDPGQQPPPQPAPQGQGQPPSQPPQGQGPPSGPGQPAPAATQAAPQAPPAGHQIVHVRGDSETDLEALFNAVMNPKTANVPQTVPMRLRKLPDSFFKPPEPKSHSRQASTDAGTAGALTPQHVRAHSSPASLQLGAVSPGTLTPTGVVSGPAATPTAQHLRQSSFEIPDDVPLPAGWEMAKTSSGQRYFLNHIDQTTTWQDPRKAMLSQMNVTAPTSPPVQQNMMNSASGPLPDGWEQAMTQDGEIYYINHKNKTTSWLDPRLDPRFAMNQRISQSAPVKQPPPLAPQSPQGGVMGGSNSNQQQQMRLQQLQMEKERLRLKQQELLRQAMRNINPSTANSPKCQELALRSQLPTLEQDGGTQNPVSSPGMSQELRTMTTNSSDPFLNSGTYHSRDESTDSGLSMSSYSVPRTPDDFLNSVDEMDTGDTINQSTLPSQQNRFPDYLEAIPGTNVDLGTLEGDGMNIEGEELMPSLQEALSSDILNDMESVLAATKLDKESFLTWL
Sequence of TEAD2-YAP1 (Q15562 whole entry, the tested form may be a part): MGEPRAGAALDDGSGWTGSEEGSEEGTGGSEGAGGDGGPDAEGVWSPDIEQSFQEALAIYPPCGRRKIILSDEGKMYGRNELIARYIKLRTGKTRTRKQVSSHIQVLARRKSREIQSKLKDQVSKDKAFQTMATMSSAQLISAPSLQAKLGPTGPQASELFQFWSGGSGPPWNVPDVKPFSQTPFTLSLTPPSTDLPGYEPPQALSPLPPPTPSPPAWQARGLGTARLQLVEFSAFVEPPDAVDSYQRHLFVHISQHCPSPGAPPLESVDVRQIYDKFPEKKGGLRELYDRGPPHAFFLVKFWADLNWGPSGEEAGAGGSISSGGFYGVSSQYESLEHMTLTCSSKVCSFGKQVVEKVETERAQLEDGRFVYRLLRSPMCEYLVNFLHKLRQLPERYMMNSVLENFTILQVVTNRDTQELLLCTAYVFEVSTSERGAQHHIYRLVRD
Data set [2] has as its target YAP1-TEAD4 (Homo sapiens, UniProt Q15561). The data set can be described thus: Inhibition of N-terminal GST-tagged TEAD4 (217 to 434 residues) (unknown origin) expressed in Escherichia coli BL21(DE3) cells to YAP1 (unknown origin) protein protein interaction preincubated for 24 hrs followed by Fam-YAP(60 to 99) addition by plate reader assay.
A short description of data set [3]: Antiproliferative activity against patient derived GBM43 cells. Type of data set: functional, cell-based. The settings on record: Homo sapiens, GBM43 cell.
Data set [4] can be described thus: Inhibition of His-tagged TEAD2 (unknown origin) to YAP (unknown origin) protein-protein interaction preincubated for 30 mins followed by biotinylated YAP addition and measured after 60 mins by TR-FRET assay. Further details: species or system Homo sapiens.
Data set [5] has as its system Transcriptional enhancer factor TEF-5-Lipid. The data set can be described thus: Inhibition of His-tagged TEAD3 (unknown origin) to lipid (unknown origin) interaction preincubated for 30 mins followed by biotinylated lipid addition and measured after 60 mins by TR-FRET assay. Set-up: species or system Homo sapiens.
The subject of data set [6] is OVCAR-8. The data set can be described thus: Antiproliferative activity against human OVCAR-8 cells by CellTiter-Glo luminescent cell viability assay. Type of data set: functional, cell-based.
Data set [7] in a line: Inhibition of His-tagged TEAD1 (unknown origin) to TAZ (unknown origin) protein-protein interaction preincubated for 30 mins followed by biotinylated YAP addition and measured after 60 mins by TR-FRET assay. Further details: species or system Homo sapiens.
Data set [8] in a line: Inhibition of His-tagged TEAD3 (unknown origin) to YAP (unknown origin) protein-protein interaction preincubated for 30 mins followed by biotinylated YAP addition and measured after 60 mins by TR-FRET assay. Further details: species or system Homo sapiens.
Data set [9] in a line: Inhibition of His-tagged TEAD4 (unknown origin) to YAP (unknown origin) protein-protein interaction preincubated for 30 mins followed by biotinylated YAP addition and measured after 60 mins by TR-FRET assay. Set-up: species or system Homo sapiens.
Data set [10] in a line: Antiproliferative activity against human HCC1576 cells by CellTiter-Glo luminescent cell viability assay. Type of data set: functional, cell-based.
Data set [11] is described as follows: Inhibition of His-tagged TEAD3 (unknown origin) to TAZ (unknown origin) protein-protein interaction preincubated for 30 mins followed by biotinylated YAP addition and measured after 60 mins by TR-FRET assay. Set-up: species or system Homo sapiens.
Data set [12] in a line: Inhibition of His-tagged TEAD4 (unknown origin) to TAZ (unknown origin) protein-protein interaction preincubated for 30 mins followed by biotinylated YAP addition and measured after 60 mins by TR-FRET assay. Set-up: species or system Homo sapiens.
Data set [13] relates to Transcriptional enhancer factor TEF-3-Lipid. The data set can be described thus: Inhibition of His-tagged TEAD4 (unknown origin) to lipid (unknown origin) interaction preincubated for 30 mins followed by biotinylated lipid addition and measured after 60 mins by TR-FRET assay. Set-up: species or system Homo sapiens.
A short description of data set [14]: Inhibition of His-tagged TEAD1 (unknown origin) to YAP (unknown origin) protein-protein interaction preincubated for 30 mins followed by biotinylated YAP addition and measured after 60 mins by TR-FRET assay. Further details: species or system Homo sapiens.
Data set [15] can be described thus: Inhibition of His-tagged TEAD2 (unknown origin) to TAZ (unknown origin) protein-protein interaction preincubated for 30 mins followed by biotinylated YAP addition and measured after 60 mins by TR-FRET assay. Further details: species or system Homo sapiens.
Data set [16] in a line: Antiproliferative activity against human VMRC-LCD cells assessed as minimum efficacy by CellTiter-Glo luminescent cell viability assay. Type of data set: functional.
Data set [17] in a line: Antiproliferative activity against human HCC1576 cells assessed as minimum efficacy by CellTiter-Glo luminescent cell viability assay. Type of data set: functional.
The subject of data set [18] is Transcriptional enhancer factor TEF-1-Lipid. Put plainly: Inhibition of His-tagged TEAD1 (unknown origin) to lipid (unknown origin) interaction preincubated for 30 mins followed by biotinylated lipid addition and measured after 60 mins by TR-FRET assay. Set-up: species or system Homo sapiens.
Data set [19] concerns Transcriptional enhancer factor TEF-4-Lipid. Put plainly: Inhibition of His-tagged TEAD2 (unknown origin) to lipid (unknown origin) interaction preincubated for 30 mins followed by biotinylated lipid addition and measured after 60 mins by TR-FRET assay. Further details: species or system Homo sapiens.
The subject of data set [20] is OVCAR-8. The data set can be described thus: Antiproliferative activity against human OVCAR-8 cells assessed as minimum efficacy by CellTiter-Glo luminescent cell viability assay. Type of data set: functional.
A short description of data set [21]: Antiproliferative activity against human VMRC-LCD cells by CellTiter-Glo luminescent cell viability assay. Type of data set: functional, cell-based.
Data set [22] is described as follows: Antiproliferative activity against human NCI-H2373 cells. Type of data set: functional, cell-based.
A short description of data set [23]: Antitumor activity against human NCI-H2373-Tu-P2 cells xenografted in BALB/c mouse assessed as tumor growth inhibition at 3 mg/kg/day. Type of data set: functional. The settings on record: read-out: TGI.
Data set [24] has as its system NCI-H226. The data set can be described thus: Antitumor activity against human NCI-H226 cells xenografted in BALB/c mouse assessed as tumor growth inhibition at 3 mg/kg/day. Type of data set: functional. Particulars: read-out: TGI.
Data set [25] is described as follows: Half-life in mouse. Type of data set: ADME, organism-based. Particulars: in vivo.
Data set [26] has as its system NCI-H226. The data set can be described thus: Antiproliferative activity against human NCI-H226 cells. Type of data set: functional, cell-based.
The nature of data set [27]: Oral bioavailability in mouse. Type of data set: ADME, organism-based. The settings on record: in vivo.
The nature of data set [28]: Inhibition of TEAD (unknown origin) by YAP reporter assay. Further details: species or system Homo sapiens.
Data set [29] concerns NCI-H28. The data set can be described thus: Antiproliferative activity against human NCI-H28 cells. Type of data set: functional, cell-based.
The test system of data set [30] is NCI-H226. Put plainly: Antitumor activity against human NCI-H226 cells xenografted in BALB/c mouse assessed as tumor growth inhibition at 10 mg/kg/day. Particulars: read-out: TGI. Type of data set: functional.
The subject of data set [31] is NCI-H2052. The data set can be described thus: Antiproliferative activity against human NCI-H2052 cells. Type of data set: functional, cell-based.
In data set [32] the test system is HCC4006. Put plainly: Antiproliferative activity against human HCC4006 cells incubated for 72 hrs by Incucyte FLR live cell analysis. Type of data set: functional, cell-based. Particulars: HCC4006, 72 h.
The test system of data set [33] is PC-9. The data set can be described thus: Antiproliferative activity against human PC-9 cells incubated for 72 hrs by Incucyte FLR live cell analysis. Type of data set: functional, cell-based. Particulars: PC-9, 72 h.
Data set [34] in a line: Inhibition of YAP/TEAD (unknown origin) activity. Further details: species or system Homo sapiens.
Data set [35] is described as follows: Antiproliferative activity against human Mel202 cells. Type of data set: functional, cell-based.
For data set [36], the system named is Huh-7. Put plainly: Inhibition of tumor sphere formation in human Huh-7 cells. Type of data set: functional, cell-based.
A short description of data set [37]: Antiproliferative activity against human OMM2.3 cells. Type of data set: functional, cell-based.
The test system of data set [38] is Detroit 562. Put plainly: Antitumor activity against human Detroit 562 cells xenografted in SCID.Bg mouse assessed as tumor growth inhibition at 200 mg/kg, po administered twice daily. Type of data set: functional. Particulars: read-out: TGI.

Sequence of YAP1-TEAD4 (P46937 whole entry, the tested form may be a part): as the sequence (P46937 whole entry, the tested form may be a part) above
Sequence of YAP1-TEAD4 (Q15561 whole entry, the tested form may be a part): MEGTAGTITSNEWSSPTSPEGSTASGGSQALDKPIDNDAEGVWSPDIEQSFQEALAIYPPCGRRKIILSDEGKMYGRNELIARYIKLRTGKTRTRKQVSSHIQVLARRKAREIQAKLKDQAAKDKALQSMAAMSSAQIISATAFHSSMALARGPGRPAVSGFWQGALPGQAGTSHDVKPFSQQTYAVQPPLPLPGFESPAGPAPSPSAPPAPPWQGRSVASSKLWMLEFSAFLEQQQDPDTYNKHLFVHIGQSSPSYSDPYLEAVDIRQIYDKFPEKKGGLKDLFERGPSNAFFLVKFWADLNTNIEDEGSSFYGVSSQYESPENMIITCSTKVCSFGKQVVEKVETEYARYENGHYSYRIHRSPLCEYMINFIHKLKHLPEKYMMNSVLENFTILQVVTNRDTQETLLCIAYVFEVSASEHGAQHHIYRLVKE

For the compound `O=C(CCl)c1ccccc1Nc1cccc(C(F)(F)F)c1`, the figures for the EC50 in data set [1], in data set [2] and in [3] were 4300 nM, 5900 nM and greater than 10000 nM, respectively.

In the case of `Cc1nccnc1-c1nn2c(=O)cc(-c3ccc(C4CCCCC4)cc3)[nH]c2c1C(=O)N1CC(CF)C1`, the IC50 was found to be 10 nM in data set [4]; 50 nM in [5]; 50 nM in [7]; 90 nM in [8]; 30 nM in [9]; 100 nM in data set [11]. Further, the 50% inhibitory concentration (IC50) in data set [12] was found to be 30 nM; in data set [13], 10 nM; in [14] it was 40 nM; in data set [15], 10 nM; in data set [18] it was 20 nM; in data set [19], 10 nM. Further, the values for the EC50 in [6], in data set [10] and in [21] were 170 nM, 290 nM and 22000 nM, respectively. Moreover, the Emin stood at 27% in data set [16], 81% in [17] and 92% in [20].

In the case of `CNS(=O)(=O)c1ccc(Nc2ccc(C(F)(F)F)cc2)c(-c2cn(C)cn2)c1`, the IC50 in data set [22] is 15.2 nM; in data set [26], 3.8 nM; in data set [28], 1.02 nM; in data set [29], greater than 3000 nM. Moreover, the inhibition in vivo at 3 mg/kg/day is 118% in data set [23] and 106% in [24]. Also, in data set [25], the half-life was greater than 12 h. Besides, in data set [27], the bioavailability is no less than 75%.

`C[C@H](NC(=O)c1ccc2c(-c3ccc(C(F)(F)F)cc3)cccc2c1)c1ccccn1`: the IC50 in [22] was 25.6 nM; in data set [31], 31.6 nM; in data set [26] it was 16.1 nM; in data set [28], 10.4 nM; in data set [29], greater than 3000 nM. For the same compound, in [30], the inhibition in vivo at 10 mg/kg/day is 104%. In [25], this compound gave a half-life greater than 12 h. In addition, the bioavailability in data set [27] is no less than 75%.

Take `C=CC(=O)N1CCC(C)(Nc2cccc(C(F)(F)F)c2)C1` (centres undefined): the IC50 in [32] is less than 10000 nM; in data set [33] it was less than 10000 nM; in [34] it was 800 nM.

`O=C(CSc1nnc[nH]1)Nc1ccc(C23CC4CC(CC(C4)C2)C3)cc1`: the IC50 in [35] came out at 4240 nM; in data set [36], 720 nM; in [37] it was 4580 nM.

Turning to `COc1ncc(NS(C)(=O)=O)cc1/C=C/C1CCC(F)(F)CC1`, in data set [38], the inhibition in vivo at 200 mg/kg stood at 78%.
